In patent US11091429B2, “Organic compounds” (Givaudan SA, priority 2012, dated 2021):
“Also recorded” adds a separate entry of the source.

Key:
Tasting in soy sauce = conditions: 0.5 ppm in pure salt reduced kikoman soy sauce (9% salt)
Procedure: (§1) The following formulations were prepared and tasted by trained panelists.
(§2) Salt level pure product between 5-40%
(§3) Salt level in application 0.3-1.0%
(§4) Samples were prepared and evaluated by expert tasters. Tasters were asked to describe the samples focusing on authentic taste, mouthfeel, fullness, salty-ness, salivation, umami, sweetness, juiciness, richness, long lastingness and fattiness.
Test on Kikkoman Soy Sauce Low Salt
Base is Kikkoman soy sauce
(§5) Samples were prepared and evaluated by expert tasters. Tasters were asked to describe the samples focusing on authentic taste, mouthfeel, fullness, salivation, salty-ness, umami, sweetness, juiciness, richness, long lastingness and fattiness.

Tasting in fish sauce = conditions: 0.5 ppm in pure fish sauce (27% salt)
Procedure: as §1, §2, §3, §5

[1] = Tasting in low fat mayonnaise; conditions: 0.5 ppm in low fat mayonnaise (27% fat)
Procedure: as §1
Low fat Mayonnaise (27% Fat, 9% carbohydrates (of which 5% sugar), 1.4% salt)
as §4
Calve 60% Reduced Fat Mayonnaise
Base is Calve Mayonnaise 60% reduced fat (market Product)
as §5
Low fat Mayonnaise (27% Fat)

[2] = Tasting in low fat salad dressing; conditions: 0.5 ppm in low fat salad dressing (13.6% fat)
Procedure: as §1
low fat salad dressing (13.6% Fat, 8%, carbohydrates (of which 5.3% sugar))
as §4
Calve Salad Dressing Low Fat (13.6% Fat):
Base is Calve salad dressing (market product)
as §5
Low fat salad dressing (13.6% Fat)

[3] = Tasting in chicken bouillon; conditions: 0.7% salt, 0.5% fat
Procedure: as §1
Standard Chicken bouillon base, 0.7% salt, 0.5% fat
as §5
Test in Soups and Bouillons
Standard Chicken Bouillon Base

Tasting in beef jus = conditions: 40 PPB in beef jus
Procedure: as §1, §5

[4] = Tasting in spreadable cheese; conditions: 0.5 PPM in spreadable cheese (Eru)
Procedure: as §1, §4
Test on “Eru Prestige” Spreadable Cheese
Base is Eru prestige (market product)
as §5

Tasting in cheese sauce = conditions: 0.5 PPM in cheese sauce 5% fat 1.6% salt
Procedure: as §1
Cheese sauce: 5% fat 1.6% salt
as §5
Cheese Sauce: 5% Fat 1.6% Salt

[5] = Tasting on fried potato snack product; conditions: 35% fat, cheese seasoning
Procedure: as §1
A snack product consisting of a fried potato base, containing 35% fat and flavored with cheese seasoning containing salt, MSG, dairy, organic acids, sugars, and a flavour formulation. The following compounds were added to the snack product at the indicated levels and the tasting results are reported: […]

[6] = Tasting on air expanded base; conditions: 3% fat, cheese seasoning
Procedure: as §1
An air expanded base (Rice, wheat, Tapioca, potato, salt, sugar, modified starch), containing 3% fat and flavored with cheese seasoning containing salt, MSG, dairy, organic acids, sugars and flavor. The following compounds were added to the base at the indicated levels and the tasting results are reported: […]

[7] = Tasting in strawberry flavoured sugar sweetened yoghurt; conditions: 2 ppm, 1.5% fat yoghurt, 8% sucrose, strawberry flavour 0.015%
Procedure: Strawberry Flavoured Sugar Sweetened Yoghurt
In a 1.5% fat yoghurt base, sweetened with 8% sucrose by weight, flavoured with a proprietary strawberry flavour @ 0.015% several different N-acyl aminoacids were added.
as §4
Test in a Strawberry Yoghurt
Base: Yoghurt 1.5% fat yoghurt, 8% sucrose, proprietary strawberry flavour @ 0.015%
(§6) Samples were evaluated by expert tasters. Tasters were asked to describe the samples focusing on authentic taste, mouthfeel, fullness, salivation, salty-ness, umami, sweetness, juiciness, richness, long lastingness and fattiness.

[8] = Tasting in strawberry drink; conditions: 0.5 ppm; 7% sucrose, 0.1% citric acid, strawberry flavour 0.015%
Procedure: as §4
Comparison in a Strawberry Drink
Base is 7% sucrose, 0.1% citric acid, and a proprietary strawberry flavour @ 0.015%
(§7) Samples were evaluated by expert tasters. Tasters were asked to describe the samples focusing on authentic taste, mouthfeel, fullness, salty-ness, salivation, umami, sweetness, juiciness, richness, long lastingness and fattiness.
Base is water, 7% sucrose, 0.1% citric acid, proprietary strawberry flavour @ 0.015%
as §6
Test in a Strawberry Drink
Base is 7% sucrose, 0.1% citric acid, proprietary strawberry flavour @ 0.015%

[9] = Tasting in vanilla milk 0.15% fat; conditions: 1 ppm, 4% sucrose, Vaniline 10 ppm + vanilla extract 0.03%
Procedure: as §4
Base: Milk 0.15% fat, sweetened with 4% sucrose by weight, flavoured with proprietary
Vaniline flavour @ 10 ppm+Vanilla ext. @ 0.03%
as §7
Comparison in a Vanilla Milk Drink
Vaniline @ 10 ppm+Vanilla extract @ 0.03%
Base: Milk 0.15% fat, sweetened with 4% sucrose by weight, flavoured with proprietary Vaniline @ 10 ppm+Vanilla extract @ 0.03%

[10] = Test in pear flavoured drink; conditions: 1 ppm; water, 7% sugar (8% elsewhere in the source), 0.1% citric acid, pear flavour 0.025%
Procedure: as §4
Test in Pear Flavoured Drink:
Base: water, 7% sugar, 0.1% citric acid, proprietary pear flavour at 0.025%
as §7
Comparison in a Pear Drink
Base is water, 8% sugar, 0.1% citric acid, proprietary pear flavour at 0.025%

[11] = Test in pineapple flavoured drink; conditions: 1 ppm; water, 8% sugar, 0.1% citric acid, pineapple flavour 0.03%
Procedure: as §4
Test in Pineapple Flavoured Drink:
Base is water, 8% sugar, 0.1% citric acid and proprietary pineapple flavour at 0.03%
as §7

Compound | tasting result (Tasting in soy sauce) | tasting result (Tasting in fish sauce) | tasting result [1] | tasting result [2] | tasting result ([3]; 0.2 PPM in chicken bouillon base) | tasting result ([3]; 0.5 PPM in chicken bouillon base) | tasting result (Tasting in beef jus) | tasting result [4] | tasting result (Tasting in cheese sauce) | tasting result ([5]; 0.5 ppm on fried potato snack) | tasting result ([5]; 1 ppm on fried potato snack) | tasting result ([6]; 0.5 ppm on air expanded base) | tasting result ([6]; 1 ppm on air expanded base) | tasting result [7] | tasting result [8] | tasting result [9] | tasting result [10] | tasting result [11]
CCCCCCCC/C=C\CCCCCCCC(=O)NC1(C(=O)O)CC1 [C18:1-ACCA, N-oleoyl 1-amino-cyclopropyl carboxylic acid] | strong upfront saltiness lingering, very strong saltiness | strong saltiness lingering and with a strong body and mouthfeel | nicely balanced compositions with a full mouthfeel and a more eggy taste; also recorded: Nice balanced, full mouthfeel, increased eggyness | more mouthfeel with body and less acidic; also recorded: Increased mouthfeel body less acidic | Saltier, Stronger and more umami | More body and fatty notes, salivating and good aftertaste | more salty, fatty, total profile is enhanced | Strong umami, lingering cheese bite | Strong umami, cheese bite, expanding | Increased salty | Increased Umami, salty | Increased salty | Increased Umami, salty |  |  |  |  | 
CCCCC/C=C\C/C=C\CCCCCCCC(=O)N[C@@H](CC(N)=O)C(=O)O [C18:2-asn, N-linoleoyl-Asn] |  |  |  |  |  |  |  |  |  |  |  |  |  | green fresh, nice, fatty nice fuller | fuller, sweeter, jammy aftertaste, long lasting | sweeter more fatty round | very ripe, authentic pear, very juicy, long lasting | very ripe, jammy, long lasting, authentic
